Laboratory results reported in ChEMBL document CHEMBL1132500, “Structure and antimalarial activity of adducts of 11-azaartemisinin with conjugated terminal acetylenes” (Bioorg Med Chem Lett, 1999).
In brackets after ≈: the same amount, converted by molar mass.

How the values were obtained:
[1] = system: Plasmodium falciparum; experiment: Antimalarial activity against Plasmodium falciparum D6 as IC50 relative to artemisinin; type: functional
[2] = system: Plasmodium falciparum; experiment: Antimalarial activity against Plasmodium falciparum W2 clone as relative IC50 to artemisinin; type: functional
[3] = system: Plasmodium falciparum; experiment: Inhibitory activity against Plasmodium falciparum W2; type: functional, organism-based
[4] = system: Plasmodium falciparum; experiment: Inhibitory activity against Plasmodium falciparum D6; type: functional, organism-based

`CC(=O)/C=C/N1C(=O)[C@H](C)[C@@H]2CC[C@@H](C)[C@@H]3CC[C@]4(C)OO[C@]32[C@H]1O4` gave an IC50 ratio [1] of 2.54 and an IC50 ratio [2] of 1.25.

`COC(=O)/C=C/N1C(=O)[C@H](C)[C@@H]2CC[C@@H](C)[C@@H]3CC[C@]4(C)OO[C@]32[C@H]1O4` showed an IC50 ratio [1] of 2 and an IC50 ratio [2] of 1.2.

`C[C@@H]1CC[C@H]2[C@@H](C)C(=O)O[C@@H]3O[C@@]4(C)CC[C@@H]1[C@]32OO4` [ARTEMISININ] showed an IC50 [3] of 1.15 ng/mL (≈ 4.07 nM) and an IC50 [4] of 4.19 ng/mL (≈ 14.8 nM).

For `C[C@@H]1CC[C@H]2[C@@H](C)C(=O)N(/C=C/C(=O)N(C)C)[C@@H]3O[C@]4(C)CC[C@@H]1[C@@]23OO4`, the IC50 ratio [1] was 0.39 and the IC50 ratio [2] was 0.35.
